The AUC is concentration integrated over time. Higher therefore signals more exposure. By Cmax is commonly meant the highest concentration seen after dosing. By Tmax is commonly meant the time from dosing to the highest level. As a reminder, the bioavailability is the share of a dose that reaches the circulation, judged against a reference dose that is usually intravenous. Broadly, the inhibition is the change of the read-out against control, counted positive when it falls. Read a low inhibition as a response near the control.

This note sets out measurements from paper PMC7617456, “Cryptosporidium lysyl-tRNA synthetase inhibitors define the interplay between solubility and permeability required to achieve efficacy” (Science translational medicine, 2024).

Data set [1] can be described thus: Dog pharmacokinetics. Format: in vivo. The procedure:
Dog pharmacokinetics (WuXi App Tec)
As for mouse except using male beagle dogs (IV dose volume: 3 mg/mL; dose vehicle: 10% DMSO, 40% PEG400, 50% (40%HP-β-CD in water); PO dose volume: 2 mg/mL; dose vehicle: 1% CMC-Na(800-1200)+0.2% Tween 80 in water). Pharmacokinetic parameters were derived from the blood concentration-time curve using WinNonLin Professional Software v 6.3 (Pharsight Corporation). […]

In data set [2] the target is T1, 5-HT transporter (h) (Homo sapiens, UniProt P31645).
T1 construct: Eurofins Cerep
T1 sequence (P31645 whole entry): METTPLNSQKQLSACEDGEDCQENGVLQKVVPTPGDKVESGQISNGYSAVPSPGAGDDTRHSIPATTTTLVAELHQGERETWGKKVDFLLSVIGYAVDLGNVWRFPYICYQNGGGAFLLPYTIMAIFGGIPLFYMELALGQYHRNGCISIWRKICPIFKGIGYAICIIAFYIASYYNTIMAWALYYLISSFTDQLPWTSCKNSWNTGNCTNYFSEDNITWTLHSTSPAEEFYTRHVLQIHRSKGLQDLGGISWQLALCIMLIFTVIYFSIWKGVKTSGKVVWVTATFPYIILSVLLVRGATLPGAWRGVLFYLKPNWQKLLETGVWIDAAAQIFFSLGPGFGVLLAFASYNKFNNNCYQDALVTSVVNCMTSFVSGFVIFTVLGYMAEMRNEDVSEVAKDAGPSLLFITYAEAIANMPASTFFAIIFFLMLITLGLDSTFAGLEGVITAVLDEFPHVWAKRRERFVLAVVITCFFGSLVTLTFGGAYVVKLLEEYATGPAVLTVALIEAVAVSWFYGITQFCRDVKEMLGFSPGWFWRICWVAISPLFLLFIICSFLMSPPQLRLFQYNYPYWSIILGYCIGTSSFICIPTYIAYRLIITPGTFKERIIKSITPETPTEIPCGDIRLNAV
The data set is described as follows: SafetyScreen44 panel: 5-HT transporter. Format: binding. An excerpt: As previously described.(31)
Table S2. ADME properties and in vitro assessment of toxicity/off-target effects for DDD489 and […]
Data are from a single biological replicate. (A) In vitro ADME properties. FaSSIF is Fasted State Simulated Intestinal Fluid Solubility. MDCK-MDR1 is a Madin-Darby canine kidney cell line transfected with the MDR1 gene, encoding for the efflux protein, P-glycoprotein (P-gp). Papp is apparent permeability, measured in the presence of P-gp inhibitor, GF120918. Efflux ratio is calculated as the ratio of Papp B-A/A-B. CHIlogD is chromatographic hydrophobicity index logD, measured at pH 7.4. clogP is calculated logP, determined by […]
Heps Cli is liver hepatocyte intrinsic clearance,
PPB is plasma protein binding.
Data quoted is percent bound. M=mouse, r=rat, d=dog, b=bovine, h=human. (B) In vitro toxicity assays. Cyp450
IC50 is cytochrome p450 enzyme inhibition. Mini-Ames was conducted in the presence and absence of S9 mix in four strains of Salmonella typhimurium. hERG IC50 is human ether-a-go-go related gene inhibition, measured using manual patch-clamp technique. (C) Mitochondrial toxicity assay data. (D) In a safety p anel of receptors and […]

The mark [3] stands for this setting: male, beagle, whole blood, dog PO 10 mg/kg.

Take `Nc1nc2c(c(C(F)(F)F)n1)C(=O)N(CC1CCCC(C(F)(F)F)C1)C2` (stereo not drawn) [DDD489]: in data set [1] (dog IV 3 mg/kg, clearance in blood), the CLB is 52 mL/min/kg. Further, in data set [1] (male, beagle, whole blood, 3 mg/kg, dog, IV, read-out: T½ (converted)), the half-life was 1.7 h. In data set [1] (male, beagle, whole blood, 3 mg/kg, dog, IV, read-out: Vdss), the Vd is 4.2 L/kg. Further, the AUC in data set [1] (male, beagle, whole blood, dog IV 3 mg/kg) was 1000 ng·h/mL. For the same compound, in data set [1] (setting [3]), the exposure (AUC) was 667 ng·h/mL, the peak level (Cmax) was 200 ng/mL and the Tmax worked out at 1.2 h. Further, the bioavailability in data set [1] (male, beagle, whole blood, dog PO 10 mg/kg, read-out: F (oral bioavailability)) was 18%. The compound further showed an inhibition at 10 µM in data set [2] of 62%.
